In patent US7329498B2, “HPV CD8+ T-cell epitopes” (Genencor International, Inc., priority 2003, dated 2008):

Tested on: naive human CD8+ T-cells
Test: CD8+ I-MUNE® T-cell proliferation assay (tritiated thymidine incorporation, dendritic cells + CD8+ T-cells + anti-CD40)
Assay type: cell-based
Conditions: HPV E7.16 9-mer peptides, 5 μg/ml, 45 donors, 1 μg/ml anti-CD40; positive response at least 2.95 times the background
Description: Fresh human peripheral blood cells were collected from humans of unknown exposure status to HPV. These cells were tested to determine antigenic epitopes in HPV 16 and 18, as described in Example 3.
Peripheral mononuclear blood cells (stored at room temperature, no older than 24 hours) were prepared for use as follows. PBMC's were isolated from buffy coat material by centrifuging over an underlay of Lymphoprep at 1000×g for 30 minutes. The interface layer was collected and washed and counted using the Cell-Dyn 3700 System (Abbott). Then, suspensions containing 10^8 PBMC's resuspended in 30 ml of AIM-V (Invitrogen) were prepared and then allowed to adhere to plastic T-75 culture flasks for two hours. The remainder of the cells were frozen at 5×10^7 cells/ml in 45% FCS (Gibco/BRL), 45% PBS w/o Ca & Mg (Mediatech), and 10% DMSO (Sigma). After the two hour PBMC incubation, non-adherent cells were removed from the flasks. The adherent cells were cultured in the flasks with 800 units/ml recombinant human GM-CSF (R&D Systems) and 100 units/ml recombinant human IL-4 (Endogen) at 37° C., 5% CO2. On day 5 of incubation, 50 units/ml recombinant human Il-1α (Endogen) and 0.2 units/ml recombinant human TNF-α were added to the cultures. Adherent and non-adherent dendritic cells were harvested, washed, and counted on day 7, following a one-hour treatment with […] mitomycin C (Sigma) and 10 mM EDTA.
Autologous CD8+ T-cells were prepared from frozen aliquots of PBMCs. After thawing and washing in DPBS, CD8+ T-cells were isolated using a commercially available CD8 negative selection kit (Dynal), according to the manufacturer's instructions. Cells were counted using the Abbott Cell-Dyn 3700 System. The purity obtained using these methods was generally found to be greater than 90%.
This Example describes the assay system used in the present invention. The basic test system is also referred to as the “I-MUNE®” assay system. The basic I-MUNE® assay system was modified as described herein to facilitate analysis of CD8+ T-cell responses. As described in greater detail below, the modifications used in the development of the present invention involved the use of CD8 negative selection beads on PBMC (i.e., instead of CD4). In addition, when CD8 cells were resuspended, […] of a 2 ug/ml anti-CD40 solution was added, before placing the DCs and peptides in the plates (the final concentration of anti-CD40 was 1 ug/ml); and 1 ul of 1 ug/ml PHA was used as a positive control, instead of tetanus toxoid.
In 96-well, round bottom plates, autologous dendritic cells and CD8+ T-cells were combined with test peptides. More specifically, in a volume of 100 μl/well, 2×10^4 dendritic cells in AIM V were combined with individual peptides (at a final peptide concentration of 5 μg/ml and a final DMSO concentration of 0.25%). After a one-hour incubation at 37° C., 5% CO2, 2×10^5 CD8+ T-cells with 2 μg/ml anti-CD40 (eBioscience; Clone 5C3 mouse IgG1, kappa) were added to the culture for a total volume of 200 μl and a final anti-CD40 concentration of 1 μg/ml per well. Negative control wells contained dendritic cells, CD8+ T-cells and 0.25% DMSO. Positive control wells contained dendritic cells, CD8+ T-cells (at the same concentrations as the test wells) and 0.25% DMSO with 5 μg/ml PHA (Sigma) (List). In some experiments, 1 ug/ml anti-IgG1 (eBioscience; Clone P3 mouse IgG1, kappa) was used as an isotype control for comparison purposes. Individual peptides were tested in duplicate or triplicate for each donor.
After 5 days of incubation at 37° C., 5% CO2, the cultures were pulsed with 0.25 μCi/well tritiated thymidine (Perkin Elmer). After a subsequent 24 hours of incubation, plates were harvested and assessed for incorporation of the tritiated thymidine (i.e., T-cell proliferation) using a Wallac Microbeta TriLux liquid scintillation counter (Perkin Elmer). Responses were averaged over the duplicate tests performed for each specimen. […]

Sequence | Epitope Classification
DEIDGPAGO (DEIDGPAGQ; human papillomavirus) [HPV E7.16 Peptide 36, 9-mer peptide of HPV16 E7] | Moderate (“Moderate epitopes” are those epitopes that produce results that are at least two standard deviations above the mean or three times the background)
DLLMGTLGI (human papillomavirus) [HPV E7.16 Peptide 81, 9-mer peptide of HPV16 E7] | Minor (“Minor epitopes” are those that have a response rate that is at least twice the background value)
DLYCYEQLN (human papillomavirus) [HPV E7.16 Peptide 21, 9-mer peptide of HPV16 E7] | Major (a “major epitope” is defined as having a response rate at least three standard deviations above the mean background response rate)
DTPTLHEYM (human papillomavirus) [HPV E7.16 Peptide 4, 9-mer peptide of HPV16 E7] | Moderate (“Moderate epitopes” are those epitopes that produce results that are at least two standard deviations above the mean or three times the background)
EDLLMGTLG (human papillomavirus) [HPV E7.16 Peptide 80, 9-mer peptide of HPV16 E7] | Minor (“Minor epitopes” are those that have a response rate that is at least twice the background value)
GQAEPDRAH (human papillomavirus) [HPV E7.16 Peptide 43, 9-mer peptide of HPV16 E7] | Minor (“Minor epitopes” are those that have a response rate that is at least twice the background value)
HEYMLDLQP (human papillomavirus) [HPV E7.16 Peptide 9, 9-mer peptide of HPV16 E7] | Minor (“Minor epitopes” are those that have a response rate that is at least twice the background value)
IRTLEDLLM (human papillomavirus) [HPV E7.16 Peptide 76, 9-mer peptide of HPV16 E7] | Minor (“Minor epitopes” are those that have a response rate that is at least twice the background value)
IVCPICSQK [HPV E7.16 Peptide 89] | Minor (“Minor epitopes” are those that have a response rate that is at least twice the background value)
IVTFCCKCD (human papillomavirus) [HPV E7.16 Peptide 54, 9-mer peptide of HPV16 E7] | Minor (“Minor epitopes” are those that have a response rate that is at least twice the background value)
LEDLLMGTL (human papillomavirus) [HPV E7.16 Peptide 79, 9-mer peptide of HPV16 E7] | Minor (“Minor epitopes” are those that have a response rate that is at least twice the background value)
LHEYMLDLQ (human papillomavirus) [HPV E7.16 Peptide 8, 9-mer peptide of HPV16 E7] | Minor (“Minor epitopes” are those that have a response rate that is at least twice the background value)
LLMGTLGIV [HPV E7.16 Peptide 82] | Minor (“Minor epitopes” are those that have a response rate that is at least twice the background value)
LMGTLGIVC (human papillomavirus) [HPV E7.16 Peptide 83, 9-mer peptide of HPV16 E7] | Minor (“Minor epitopes” are those that have a response rate that is at least twice the background value)
MGTLGIVCP (human papillomavirus) [HPV E7.16 Peptide 84, 9-mer peptide of HPV16 E7] | Minor (“Minor epitopes” are those that have a response rate that is at least twice the background value)
MHGDTPTLH (human papillomavirus) [HPV E7.16 Peptide 1, 9-mer peptide of HPV16 E7] | Minor (“Minor epitopes” are those that have a response rate that is at least twice the background value)
TLHEYMLDL (human papillomavirus) [HPV E7.16 Peptide 7, 9-mer peptide of HPV16 E7] | Minor (“Minor epitopes” are those that have a response rate that is at least twice the background value)
TPTLHEYML (human papillomavirus) [HPV E7.16 Peptide 5, 9-mer peptide of HPV16 E7] | Minor (“Minor epitopes” are those that have a response rate that is at least twice the background value)

Same assay, conditions: HPV E7.18 9-mer peptides, 5 μg/ml, 58 donors, 1 μg/ml anti-CD40; positive response at least 2.95 times the background

Sequence | Epitope Classification
ARRAEPQRH (human papillomavirus) [HPV E7.18 Peptide 51, 9-mer peptide of HPV18 E7] | Minor (“Minor epitopes” are those that have a response rate that is at least twice the background value)
CKCEARIKL (human papillomavirus) [HPV E7.18 Peptide 66, 9-mer peptide of HPV18 E7] | Minor (“Minor epitopes” are those that have a response rate that is at least twice the background value)
PQNEIPVDL (human papillomavirus) [HPV E7.18 Peptide 17, 9-mer peptide of HPV18 E7] | Minor (“Minor epitopes” are those that have a response rate that is at least twice the background value)
RIKLVVESS (human papillomavirus) [HPV E7.18 Peptide 71, 9-mer peptide of HPV18 E7] | Minor (“Minor epitopes” are those that have a response rate that is at least twice the background value)
SFVCPWCAS (human papillomavirus) [HPV E7.18 Peptide 95, 9-mer peptide of HPV18 E7] | Minor (“Minor epitopes” are those that have a response rate that is at least twice the background value)
